Measurements as given in PMC9506414, “Novel 2,6,9-Trisubstituted Purines as Potent CDK Inhibitors Alleviating Trastuzumab-Resistance of HER2-Positive Breast Cancers” (Pharmaceuticals, 2022).

Key:
Assay in all cases: Kinome-wide inhibition profiling
Format in all cases: biochemical
[1] = target: T1, ACVR1B (Homo sapiens, UniProt P36896)
T1 construct: purchased Reaction Biology Corp
Description: (§1) In vitro CDK12/cyclinK assays for all compounds and in vitro kinome-wide inhibition profiling of 30d at 10 μM were performed by a CRO company (Reaction Biology Corp., San Diego, CA, USA).

[2] = target: T2, ACVRL1 (Homo sapiens, UniProt P37023)
T2 construct: purchased Reaction Biology Corp
Description: as §1

[3] = target: T3, AKT1 (Homo sapiens, UniProt P31749)
T3 construct: purchased Reaction Biology Corp
Description: as §1

[4] = target: T4, BMPR1A (Homo sapiens, UniProt P36894)
T4 construct: purchased Reaction Biology Corp
Description: as §1

[5] = target: T5, CDK4/cyclinD3 (Homo sapiens, UniProt P11802)
T5 construct: purchased Reaction Biology Corp
Description: as §1

[6] = target: T6, CDK5/p35 (Homo sapiens, UniProt Q00535)
T6 construct: purchased Reaction Biology Corp
Description: as §1

[7] = target: T7, CDK7/cyclinH (Homo sapiens, UniProt P50613)
T7 construct: purchased Reaction Biology Corp
Description: as §1

[8] = target: T8, CSK (Homo sapiens, UniProt P41240)
T8 construct: purchased Reaction Biology Corp
Description: as §1

[9] = target: T9, DMPK (Homo sapiens, UniProt Q09013)
T9 construct: purchased Reaction Biology Corp
Description: as §1

[10] = target: T10, DYRK1B (Homo sapiens, UniProt Q9Y463)
T10 construct: purchased Reaction Biology Corp
Description: as §1

[11] = target: T11, EPHA6 (Homo sapiens, UniProt Q9UF33)
T11 construct: purchased Reaction Biology Corp
Description: as §1

[12] = target: T12, EPHA8 (Homo sapiens, UniProt P29322)
T12 construct: purchased Reaction Biology Corp
Description: as §1

[13] = target: T13, ERK7 (Homo sapiens, UniProt Q8TD08)
T13 construct: purchased Reaction Biology Corp
Description: as §1

[14] = target: T14, FGR (Homo sapiens, UniProt P09769)
T14 construct: purchased Reaction Biology Corp
Description: as §1

[15] = target: T15, GRK5 (Homo sapiens, UniProt P34947)
T15 construct: purchased Reaction Biology Corp
Description: as §1

[16] = target: T16, IKK-beta (Homo sapiens, UniProt O14920)
T16 construct: purchased Reaction Biology Corp
Description: as §1

[17] = target: T17, MARK1 (Homo sapiens, UniProt Q9P0L2)
T17 construct: purchased Reaction Biology Corp
Description: as §1

[18] = target: T18, MEK1 (Homo sapiens, UniProt Q02750)
T18 construct: purchased Reaction Biology Corp
Description: as §1

[19] = target: T19, MKK7 (Homo sapiens, UniProt O14733)
T19 construct: purchased Reaction Biology Corp
Description: as §1

[20] = target: T20, MLK1 (Homo sapiens, UniProt P80192)
T20 construct: purchased Reaction Biology Corp
Description: as §1

[21] = target: T21, MLK3 (Homo sapiens, UniProt Q16584)
T21 construct: purchased Reaction Biology Corp
Description: as §1

[22] = target: T22, MLK4 (Homo sapiens, UniProt Q5TCX8)
T22 construct: purchased Reaction Biology Corp
Description: as §1

[23] = target: T23, MRCKb (Homo sapiens, UniProt Q9Y5S2)
T23 construct: purchased Reaction Biology Corp
Description: as §1

[24] = target: T24, MST4 (Homo sapiens, UniProt Q9P289)
T24 construct: purchased Reaction Biology Corp
Description: as §1

[25] = target: T25, NDR2 (Homo sapiens, UniProt Q9Y2H1)
T25 construct: purchased Reaction Biology Corp
Description: as §1

[26] = target: T26, P38-delta (Homo sapiens, UniProt O15264)
T26 construct: purchased Reaction Biology Corp
Description: as §1

[27] = target: T27, PAK6 (Homo sapiens, UniProt Q9NQU5)
T27 construct: purchased Reaction Biology Corp
Description: as §1

[28] = target: T28, PBK/TOPK (Homo sapiens, UniProt Q96KB5)
T28 construct: purchased Reaction Biology Corp
Description: as §1

[29] = target: T29, PKAC-beta (Homo sapiens, UniProt P22694)
T29 construct: purchased Reaction Biology Corp
Description: as §1

[30] = target: T30, PKCb2 (Homo sapiens, UniProt P05771)
T30 construct: purchased Reaction Biology Corp
Description: as §1

[31] = target: T31, PLK1 (Homo sapiens, UniProt P53350)
T31 construct: purchased Reaction Biology Corp
Description: as §1

[32] = target: T32, PRKCD (Homo sapiens, UniProt Q05655)
T32 construct: purchased Reaction Biology Corp
Description: as §1

[33] = target: T33, PRKCH (Homo sapiens, UniProt P24723)
T33 construct: purchased Reaction Biology Corp
Description: as §1

[34] = target: T34, PRKG1b (Homo sapiens, UniProt Q13976)
T34 construct: purchased Reaction Biology Corp
Description: as §1

[35] = target: T35, PRKX (Homo sapiens, UniProt P51817)
T35 construct: purchased Reaction Biology Corp
Description: as §1

[36] = target: T36, RAF1 (Homo sapiens, UniProt P04049)
T36 construct: purchased Reaction Biology Corp
Description: as §1

[37] = target: T37, RPS6KA5(Kin.Dom.1-N-term) (Homo sapiens, UniProt O75582)
T37 construct: RPS6KA5(Kin.Dom.1-N-term); purchased Reaction Biology Corp
Description: as §1

[38] = target: T38, S6K1 (Homo sapiens, UniProt P23443)
T38 construct: purchased Reaction Biology Corp
Description: as §1

[39] = target: T39, SGK1 (Homo sapiens, UniProt O00141)
T39 construct: purchased Reaction Biology Corp
Description: as §1

[40] = target: T40, SGK3 (Homo sapiens, UniProt Q96BR1)
T40 construct: purchased Reaction Biology Corp
Description: as §1

[41] = target: T41, TLK2 (Homo sapiens, UniProt Q86UE8)
T41 construct: purchased Reaction Biology Corp
Description: as §1

[42] = target: T42, ULK2 (Homo sapiens, UniProt Q8IYT8)
T42 construct: purchased Reaction Biology Corp
Description: as §1

T10 sequence (Q9Y463 whole entry): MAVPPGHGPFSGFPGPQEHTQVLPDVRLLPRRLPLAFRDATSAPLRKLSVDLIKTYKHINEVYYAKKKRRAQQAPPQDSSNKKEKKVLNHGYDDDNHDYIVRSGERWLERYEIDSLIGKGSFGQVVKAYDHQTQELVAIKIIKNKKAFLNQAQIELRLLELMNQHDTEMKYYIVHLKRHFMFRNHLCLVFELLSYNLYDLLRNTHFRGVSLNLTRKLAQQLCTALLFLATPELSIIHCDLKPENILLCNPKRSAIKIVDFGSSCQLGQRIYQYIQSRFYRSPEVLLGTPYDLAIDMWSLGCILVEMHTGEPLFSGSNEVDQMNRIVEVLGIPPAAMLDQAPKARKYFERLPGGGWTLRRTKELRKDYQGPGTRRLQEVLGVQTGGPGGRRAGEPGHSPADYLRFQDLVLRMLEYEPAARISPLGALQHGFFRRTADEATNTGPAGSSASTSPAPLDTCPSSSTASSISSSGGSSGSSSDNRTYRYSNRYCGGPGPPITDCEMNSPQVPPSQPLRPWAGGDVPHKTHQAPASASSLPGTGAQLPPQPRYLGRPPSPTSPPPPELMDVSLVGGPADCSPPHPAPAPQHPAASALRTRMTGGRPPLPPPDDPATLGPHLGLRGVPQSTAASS
T6 sequence (Q00535 whole entry): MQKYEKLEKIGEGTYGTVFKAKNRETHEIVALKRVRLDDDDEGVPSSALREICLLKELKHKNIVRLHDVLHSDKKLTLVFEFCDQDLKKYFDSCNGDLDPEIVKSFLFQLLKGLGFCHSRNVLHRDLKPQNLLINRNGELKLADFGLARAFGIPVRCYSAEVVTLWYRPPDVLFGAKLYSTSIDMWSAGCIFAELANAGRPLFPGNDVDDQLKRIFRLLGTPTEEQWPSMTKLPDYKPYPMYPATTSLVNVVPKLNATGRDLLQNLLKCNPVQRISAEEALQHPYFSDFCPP
T6 sequence (Q15078 whole entry partner): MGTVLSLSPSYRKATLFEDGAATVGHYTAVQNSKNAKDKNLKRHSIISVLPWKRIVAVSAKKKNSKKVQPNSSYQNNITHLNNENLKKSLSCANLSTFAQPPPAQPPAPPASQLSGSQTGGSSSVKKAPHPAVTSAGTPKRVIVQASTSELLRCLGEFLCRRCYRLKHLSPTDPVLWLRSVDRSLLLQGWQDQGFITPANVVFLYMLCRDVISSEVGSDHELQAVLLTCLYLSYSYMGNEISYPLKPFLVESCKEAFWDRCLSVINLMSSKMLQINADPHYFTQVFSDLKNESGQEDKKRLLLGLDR
T11 sequence (Q9UF33 23-1036): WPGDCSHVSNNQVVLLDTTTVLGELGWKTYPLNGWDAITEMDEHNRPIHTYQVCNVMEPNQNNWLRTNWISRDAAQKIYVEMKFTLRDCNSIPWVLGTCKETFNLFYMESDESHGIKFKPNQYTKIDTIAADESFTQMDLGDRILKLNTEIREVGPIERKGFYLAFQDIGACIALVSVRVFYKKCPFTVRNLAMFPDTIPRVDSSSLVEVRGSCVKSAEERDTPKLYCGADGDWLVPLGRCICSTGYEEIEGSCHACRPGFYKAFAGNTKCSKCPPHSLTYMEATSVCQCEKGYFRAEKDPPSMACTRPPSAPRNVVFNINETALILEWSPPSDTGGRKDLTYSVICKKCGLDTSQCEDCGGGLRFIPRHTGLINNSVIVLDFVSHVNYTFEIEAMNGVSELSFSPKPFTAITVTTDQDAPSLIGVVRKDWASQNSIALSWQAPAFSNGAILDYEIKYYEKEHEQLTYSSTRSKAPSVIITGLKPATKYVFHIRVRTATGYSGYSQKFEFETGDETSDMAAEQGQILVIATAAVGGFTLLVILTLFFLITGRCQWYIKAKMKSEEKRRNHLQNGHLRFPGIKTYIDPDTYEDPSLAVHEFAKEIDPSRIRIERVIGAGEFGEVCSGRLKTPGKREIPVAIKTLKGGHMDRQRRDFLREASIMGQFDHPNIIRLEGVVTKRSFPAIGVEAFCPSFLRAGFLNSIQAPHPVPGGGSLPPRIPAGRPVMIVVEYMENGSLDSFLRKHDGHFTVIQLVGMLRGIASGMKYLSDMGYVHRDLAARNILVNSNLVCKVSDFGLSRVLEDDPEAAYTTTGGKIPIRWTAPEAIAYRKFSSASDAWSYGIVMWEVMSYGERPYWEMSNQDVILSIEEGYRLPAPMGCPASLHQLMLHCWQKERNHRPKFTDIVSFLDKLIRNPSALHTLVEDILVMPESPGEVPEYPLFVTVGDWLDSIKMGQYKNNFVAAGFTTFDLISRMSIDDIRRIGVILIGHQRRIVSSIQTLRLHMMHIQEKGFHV
T7 sequence (P50613 whole entry): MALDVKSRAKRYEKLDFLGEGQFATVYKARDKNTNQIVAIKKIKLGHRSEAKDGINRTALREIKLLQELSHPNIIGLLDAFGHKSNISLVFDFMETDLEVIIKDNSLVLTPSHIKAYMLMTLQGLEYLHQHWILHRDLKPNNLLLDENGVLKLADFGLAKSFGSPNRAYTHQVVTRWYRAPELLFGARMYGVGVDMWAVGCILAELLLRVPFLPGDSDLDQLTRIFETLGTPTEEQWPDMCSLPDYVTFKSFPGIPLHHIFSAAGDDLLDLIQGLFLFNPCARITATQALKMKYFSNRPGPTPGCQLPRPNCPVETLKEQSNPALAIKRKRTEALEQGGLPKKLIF
T7 sequence (P51946 whole entry partner): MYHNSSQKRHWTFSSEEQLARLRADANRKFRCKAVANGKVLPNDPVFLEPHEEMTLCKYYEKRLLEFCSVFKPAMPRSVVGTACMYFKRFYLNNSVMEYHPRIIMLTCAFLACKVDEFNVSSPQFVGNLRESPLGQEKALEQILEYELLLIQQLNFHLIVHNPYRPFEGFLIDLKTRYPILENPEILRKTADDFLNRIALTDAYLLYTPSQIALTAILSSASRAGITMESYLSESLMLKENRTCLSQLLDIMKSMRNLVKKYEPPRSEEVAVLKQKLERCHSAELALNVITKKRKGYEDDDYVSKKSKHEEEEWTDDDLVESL
T7 sequence (P51948 whole entry partner): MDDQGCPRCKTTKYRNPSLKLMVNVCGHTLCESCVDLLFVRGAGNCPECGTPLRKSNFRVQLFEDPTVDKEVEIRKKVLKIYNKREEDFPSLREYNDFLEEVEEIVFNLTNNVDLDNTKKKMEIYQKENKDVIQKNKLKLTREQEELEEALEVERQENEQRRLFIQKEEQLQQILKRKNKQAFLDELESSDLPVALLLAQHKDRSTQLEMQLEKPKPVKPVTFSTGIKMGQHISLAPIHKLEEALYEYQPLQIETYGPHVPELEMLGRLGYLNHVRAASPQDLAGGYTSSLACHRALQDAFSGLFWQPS
T14 sequence (P09769 whole entry): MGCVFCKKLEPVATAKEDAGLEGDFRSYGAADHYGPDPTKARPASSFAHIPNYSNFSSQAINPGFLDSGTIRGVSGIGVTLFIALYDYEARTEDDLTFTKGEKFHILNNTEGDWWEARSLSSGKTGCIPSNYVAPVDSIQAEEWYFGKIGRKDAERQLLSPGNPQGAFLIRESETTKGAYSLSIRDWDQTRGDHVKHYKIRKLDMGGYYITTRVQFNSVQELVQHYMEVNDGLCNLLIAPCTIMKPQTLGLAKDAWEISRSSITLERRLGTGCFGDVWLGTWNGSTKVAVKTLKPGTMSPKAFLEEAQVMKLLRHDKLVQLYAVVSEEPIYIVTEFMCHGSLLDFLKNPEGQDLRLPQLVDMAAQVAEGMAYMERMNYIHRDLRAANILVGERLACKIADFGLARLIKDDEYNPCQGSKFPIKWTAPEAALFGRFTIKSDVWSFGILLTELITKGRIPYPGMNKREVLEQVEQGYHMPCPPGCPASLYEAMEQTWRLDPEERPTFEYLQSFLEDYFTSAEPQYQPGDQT
T2 sequence (P37023 22-503): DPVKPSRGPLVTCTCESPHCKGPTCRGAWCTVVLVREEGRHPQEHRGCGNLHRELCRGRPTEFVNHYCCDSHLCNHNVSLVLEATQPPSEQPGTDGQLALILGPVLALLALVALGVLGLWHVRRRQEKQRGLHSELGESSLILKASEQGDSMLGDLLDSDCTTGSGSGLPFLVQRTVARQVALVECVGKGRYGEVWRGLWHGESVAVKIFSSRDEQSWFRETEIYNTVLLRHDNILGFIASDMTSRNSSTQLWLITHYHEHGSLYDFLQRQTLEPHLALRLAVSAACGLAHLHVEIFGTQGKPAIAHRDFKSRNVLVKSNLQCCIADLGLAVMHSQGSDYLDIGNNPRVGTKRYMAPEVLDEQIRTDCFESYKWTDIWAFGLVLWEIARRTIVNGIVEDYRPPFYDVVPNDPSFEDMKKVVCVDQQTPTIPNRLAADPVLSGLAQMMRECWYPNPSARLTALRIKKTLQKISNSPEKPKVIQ
T15 sequence (P34947 whole entry): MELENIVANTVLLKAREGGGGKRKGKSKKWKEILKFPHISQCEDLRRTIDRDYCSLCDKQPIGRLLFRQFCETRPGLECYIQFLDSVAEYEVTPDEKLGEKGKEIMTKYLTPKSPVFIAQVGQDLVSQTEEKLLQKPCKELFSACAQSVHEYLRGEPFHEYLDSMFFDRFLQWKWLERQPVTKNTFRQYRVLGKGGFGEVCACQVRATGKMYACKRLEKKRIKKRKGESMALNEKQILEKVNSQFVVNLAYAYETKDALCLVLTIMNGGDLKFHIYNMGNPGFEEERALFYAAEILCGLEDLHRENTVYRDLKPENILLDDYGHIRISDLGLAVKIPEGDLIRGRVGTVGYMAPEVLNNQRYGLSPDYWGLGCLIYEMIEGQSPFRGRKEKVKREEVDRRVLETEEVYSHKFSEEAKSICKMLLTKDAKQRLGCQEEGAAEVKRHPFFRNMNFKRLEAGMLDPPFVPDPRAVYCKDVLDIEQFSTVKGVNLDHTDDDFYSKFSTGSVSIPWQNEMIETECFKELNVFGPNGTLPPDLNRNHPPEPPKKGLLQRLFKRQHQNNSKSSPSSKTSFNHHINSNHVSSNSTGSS

SMILES: CCn1cnc2c(NCc3ccc(-c4ccccn4)nc3)nc(-c3ccc(N)nc3)nc21 [Compound 30d, N-([2,2′-Bipyridin]-5-ylmethyl)-2-(6-aminopyridin-3-yl)-9-ethyl-9H-purin-6-amine]
- remaining activity at 10 µM [1]: 132%
- remaining activity at 10 µM [2]: 105%
- remaining activity at 10 µM [3]: 94.9%
- remaining activity at 10 µM [4]: 126%
- remaining activity at 10 µM [5]: 28.6%
- inhibition at 10 µM [6]: > 95%
- remaining activity at 10 µM [6]: 0.7%
- inhibition at 10 µM [7]: > 95%
- remaining activity at 10 µM [7]: 3.8%
- remaining activity at 10 µM [8]: 54.8%
- remaining activity at 10 µM [9]: 90.4%
- inhibition at 10 µM [10]: > 95%
- remaining activity at 10 µM [10]: 3.2%
- inhibition at 10 µM [11]: > 95%
- remaining activity at 10 µM [11]: 3%
- remaining activity at 10 µM [12]: 94%
- remaining activity at 10 µM [13]: 13.5%
- remaining activity at 10 µM [14]: 54.6%
- remaining activity at 10 µM [15]: 91.5%
- remaining activity at 10 µM [16]: 83.7%
- remaining activity at 10 µM [17]: 81.5%
- remaining activity at 10 µM [18]: 149%
- remaining activity at 10 µM [19]: 96.3%
- remaining activity at 10 µM [20]: 27.9%
- remaining activity at 10 µM [21]: 51.4%
- remaining activity at 10 µM [22]: 114%
- remaining activity at 10 µM [23]: 99.3%
- remaining activity at 10 µM [24]: 45.8%
- remaining activity at 10 µM [25]: 36.9%
- remaining activity at 10 µM [26]: 102%
- remaining activity at 10 µM [27]: 57.2%
- remaining activity at 10 µM [28]: 93.5%
- remaining activity at 10 µM [29]: 104%
- remaining activity at 10 µM [30]: 39.6%
- remaining activity at 10 µM [31]: 68.3%
- remaining activity at 10 µM [32]: 95.2%
- remaining activity at 10 µM [33]: 87.9%
- remaining activity at 10 µM [34]: 97.6%
- remaining activity at 10 µM [35]: 79.2%
- remaining activity at 10 µM [36]: 68.6%
- remaining activity at 10 µM [37]: 80.5%
- remaining activity at 10 µM [38]: 92.1%
- remaining activity at 10 µM [39]: 84.9%
- remaining activity at 10 µM [40]: 92.6%
- remaining activity at 10 µM [41]: 72.2%
- remaining activity at 10 µM [42]: 87.3%
